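The compound was tested at five concentrations on cells cultured in 96-well plates, with a 48-hour exposure period. Here, GI50 denotes the concentration required for 50% inhibition of growth.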 The source made the active and inactive calls. Cut-off read from the data, not from the text of the source: active = GI50 up to about 1.1 µM and inactive = higher.

The source of these data is ChEMBL document CHEMBL1201862, “PubChem BioAssay data set” (2004).

Some test systems named below: HOP-92; RXF 393; TK-10; SK-MEL-2; EKVX; HCT-15; KM12; RPMI-8226; SF-539; OVCAR-4; CAKI-1; IGROV-1; HT-29; NCI-H522; 786-0; NCI-H460; MDA-MB-435; MCF7; T47D.
Common to all, as to assay: inhibition of tumour cell growth, NCI panel, 48 h

Take `C1OC1CN1CCN(CC2CO2)CC1` (configuration not stated): the GI50 in the assay on HOP-92 is 80.9 µM (inactive); in the assay with RXF 393 it was > 100 µM (inactive); in the assay on TK-10 it was > 100 µM (inactive); with SK-MEL-2 it was > 100 µM (inactive); in the assay with EKVX, > 100 µM (inactive); in the assay with HCT-15, greater than 100 µM. The GI50 in the assay on KM12 was > 100 µM (inactive); in the assay with RPMI-8226 it was > 66.8 µM (inactive); in the assay with SF-539, 37.4 µM (inactive); in the assay with OVCAR-4, > 100 µM (inactive); in the assay on CAKI-1, 26.7 µM (inactive); in the assay on IGROV-1, > 100 µM (inactive). Further, the GI50 is > 100 µM (inactive) in the assay with HT-29, > 100 µM (inactive) with NCI-H522, 35.3 µM (inactive) in the assay with 786-0 and 6.53 µM (inactive) in the assay with NCI-H460.

As for `C/C(=C1/CCCC2(N=NCC2c2ccccc2)C1=O)c1ccccc1` (configuration not stated), the GI50 with HOP-92 was 24.2 µM (inactive); in the assay with RXF 393, 25.4 µM (inactive); in the assay on TK-10, 42.7 µM (inactive); with SK-MEL-2 it was 19.1 µM (inactive); in the assay with EKVX, 28.3 µM (inactive); in the assay with HCT-15, 35.1 µM. The GI50 in the assay on KM12 is 15.9 µM (inactive); with RPMI-8226, 20 µM (inactive); with SF-539, 41.2 µM (inactive); in the assay with OVCAR-4 it was 30.7 µM (inactive); in the assay on IGROV-1, 42.4 µM (inactive); with HT-29, 20.5 µM (inactive). Further, the GI50 with NCI-H522 is 14.8 µM (inactive); with 786-0 it was 46.7 µM (inactive); in the assay on NCI-H460 it was 26.3 µM (inactive).

As for `O=C(Nc1nc2ncn(CCO)c2c(=S)[nH]1)c1ccccc1`, the GI50 in the assay with HOP-92 was > 100 µM (inactive); in the assay on RXF 393 it was > 100 µM (inactive); in the assay with TK-10, > 100 µM (inactive); in the assay with SK-MEL-2 it was > 100 µM (inactive); in the assay with EKVX, > 100 µM (inactive); in the assay on HCT-15, greater than 100 µM. The GI50 in the assay with KM12, with RPMI-8226, in the assay with SF-539, in the assay on OVCAR-4, in the assay on CAKI-1 and in the assay on IGROV-1 was > 100 µM (inactive) in each case. Besides, the GI50 in the assay on HT-29, in the assay on NCI-H522, in the assay with 786-0 and in the assay with NCI-H460 was > 100 µM (inactive) each time.

`COc1cc(C(=O)O[C@H]2CCC3CCC2N3C)cc(OC)c1OC` (some centres not stated): the GI50 in the assay with HOP-92 is 34.4 µM (inactive); with RXF 393, > 100 µM (inactive); in the assay on TK-10 it was > 100 µM (inactive); in the assay with MDA-MB-435, > 100 µM (inactive); in the assay with EKVX, > 100 µM (inactive); in the assay with HCT-15 it was greater than 100 µM. Further, the GI50 in the assay with KM12, with RPMI-8226, in the assay on SF-539, in the assay with OVCAR-4, in the assay on HT-29 and in the assay with MCF7 was > 100 µM (inactive) each time. In addition, the GI50 in the assay with 786-0 and in the assay with NCI-H460 was > 100 µM (inactive) each time.

Take `O=C1NC2=C(CCCCC/C2=N\O)C12CCCCCC2`: the GI50 in the assay on HOP-92 is > 100 µM (inactive); with RXF 393 it was > 100 µM (inactive); with TK-10 it was > 100 µM (inactive); in the assay with SK-MEL-2, > 100 µM (inactive); in the assay with EKVX it was > 100 µM (inactive); with HCT-15, greater than 100 µM. The GI50 in the assay on KM12, in the assay with RPMI-8226, in the assay with SF-539, in the assay with OVCAR-4, in the assay on CAKI-1 and in the assay with IGROV-1 was > 100 µM (inactive) each time. Moreover, the GI50 in the assay on HT-29, with NCI-H522, with 786-0 and in the assay on NCI-H460 was > 100 µM (inactive) each time.

With `O=C(CCC(=O)Nc1ccc(Cl)cc1)CC(=O)c1ccc2ccccc2c1`, the GI50 in the assay on HOP-92 is > 100 µM (inactive); in the assay with RXF 393, > 100 µM (inactive); in the assay on TK-10, > 100 µM (inactive); in the assay with SK-MEL-2, > 100 µM (inactive); in the assay on EKVX, > 100 µM (inactive); in the assay on HCT-15 it was greater than 100 µM. Besides, the GI50 in the assay with KM12, in the assay with RPMI-8226, in the assay on SF-539, with OVCAR-4, with CAKI-1 and with IGROV-1 was > 100 µM (inactive) in each case. In addition, the GI50 with HT-29, in the assay on NCI-H522, in the assay on 786-0 and in the assay with NCI-H460 was > 100 µM (inactive) each time.

On to `O=C1C/C(Br)=C\c2ccccc2-c2ccccc21`, for which the GI50 with HOP-92 was 1.85 µM (inactive); in the assay on RXF 393 it was 1.43 µM (inactive); with TK-10, 4.78 µM (inactive); in the assay on SK-MEL-2, 2.7 µM (inactive); with EKVX, 9.82 µM (inactive); with HCT-15, 1.56 µM. Further, the GI50 was 3.52 µM (inactive) in the assay with KM12; 1.52 µM (inactive) in the assay on RPMI-8226; 2.16 µM (inactive) with SF-539; 2.53 µM (inactive) with OVCAR-4; 1.98 µM (inactive) with CAKI-1; 3.1 µM (inactive) in the assay with IGROV-1. For the same compound, the GI50 in the assay on HT-29 was 2.07 µM (inactive); in the assay with NCI-H522 it was 0.429 µM (active); in the assay with 786-0, 1.4 µM (inactive); in the assay with NCI-H460, 2.86 µM (inactive).

As to `O=C1C=C2CCCC2C(C(=O)O)(C(=O)O)C1` (configuration not stated), the GI50 in the assay with HOP-92 is > 100 µM (inactive); in the assay with RXF 393, > 100 µM (inactive); in the assay on TK-10 it was > 100 µM (inactive); in the assay on SK-MEL-2, > 100 µM (inactive); in the assay on EKVX, > 100 µM (inactive); with HCT-15, greater than 100 µM. Further, the GI50 in the assay on KM12, in the assay with RPMI-8226, in the assay on SF-539, in the assay on OVCAR-4, in the assay with CAKI-1 and in the assay on IGROV-1 was > 100 µM (inactive) in each case. Also, the GI50 with HT-29, in the assay on NCI-H522, with 786-0 and in the assay with NCI-H460 was > 100 µM (inactive) each time.

With `Clc1cc(-c2csc(Cl)c2)cs1`, the GI50 with HOP-92, in the assay on RXF 393, in the assay on TK-10, in the assay with SK-MEL-2, with MDA-MB-435 and in the assay with EKVX was > 100 µM (inactive) throughout. Further, the GI50 was greater than 100 µM in the assay with HCT-15; > 100 µM (inactive) in the assay on KM12; > 100 µM (inactive) with RPMI-8226; > 100 µM (inactive) in the assay on SF-539; > 100 µM (inactive) with OVCAR-4; > 100 µM (inactive) in the assay with CAKI-1. The GI50 in the assay with IGROV-1, with HT-29, with MCF7, in the assay on NCI-H522, in the assay on 786-0 and in the assay with NCI-H460 was > 100 µM (inactive) each time.

As for `O=C1C=C(O)C(=Cc2c(O)cc(O)cc2O)C(O)=C1`, the GI50 with HOP-92 was > 100 µM (inactive); in the assay on RXF 393 it was > 100 µM (inactive); in the assay on TK-10 it was > 100 µM (inactive); with SK-MEL-2, > 100 µM (inactive); with EKVX, > 100 µM (inactive); with HCT-15 it was greater than 100 µM. In addition, the GI50 in the assay on KM12, in the assay on RPMI-8226, with SF-539, in the assay with OVCAR-4, in the assay on CAKI-1 and in the assay on IGROV-1 was > 100 µM (inactive) in each case. The GI50 in the assay with HT-29, in the assay with NCI-H522, in the assay with 786-0 and in the assay with NCI-H460 was > 100 µM (inactive) in each case.

Consider `CCCCCCCCCc1cc(=O)c2c(O)cc(O)cc2o1`, for which the GI50 in the assay with HOP-92 is 16.3 µM (inactive); with RXF 393 it was 15.1 µM (inactive); in the assay on TK-10 it was 18.8 µM (inactive); with SK-MEL-2, 18.9 µM (inactive); in the assay on MDA-MB-435, 18.7 µM (inactive); with EKVX it was 18.7 µM (inactive). Besides, the GI50 in the assay with HCT-15 is 18.8 µM; with KM12, 6.67 µM (inactive); in the assay on RPMI-8226 it was 5.86 µM (inactive); in the assay on SF-539 it was 17.3 µM (inactive); in the assay with OVCAR-4 it was 24.3 µM (inactive); with CAKI-1 it was > 100 µM (inactive). Moreover, the GI50 in the assay on IGROV-1 was 16.5 µM (inactive); in the assay on T47D it was 22.2 µM (inactive); in the assay on HT-29 it was 19.1 µM (inactive); in the assay with NCI-H522 it was 15.1 µM (inactive); in the assay on 786-0, 21.6 µM (inactive); with NCI-H460, 22.6 µM (inactive).

On to `C#CCNC(=O)NCCCC(NC(C)=O)C(=O)NCc1ccccc1` (configuration not stated), for which the GI50 is > 100 µM (inactive) in the assay on HOP-92; > 100 µM (inactive) in the assay with RXF 393; > 100 µM (inactive) with TK-10; > 100 µM (inactive) with EKVX; greater than 100 µM in the assay on HCT-15; > 100 µM (inactive) in the assay on KM12. The GI50 with RPMI-8226, in the assay with SF-539, in the assay with OVCAR-4, in the assay with CAKI-1, in the assay with IGROV-1 and with HT-29 was > 100 µM (inactive) throughout. Also, the GI50 with NCI-H522, in the assay with 786-0 and with NCI-H460 was > 100 µM (inactive) in each case.

`O=C1C(c2ccccc2)=[N+]([O-])c2ccccc21`: the GI50 in the assay with HOP-92 was 6.79 µM (inactive); with TK-10, 20 µM (inactive); in the assay on SK-MEL-2, 14.7 µM (inactive); with MDA-MB-435, 3.37 µM (inactive); in the assay on EKVX it was 15.1 µM (inactive); in the assay on HCT-15, 19.7 µM. Moreover, the GI50 in the assay on KM12 was 19.8 µM (inactive); in the assay with RPMI-8226 it was 14.9 µM (inactive); in the assay on SF-539 it was 18.8 µM (inactive); in the assay with OVCAR-4 it was 4.04 µM (inactive); in the assay with T47D, 1.97 µM (inactive); in the assay on HT-29 it was 20.2 µM (inactive). Further, the GI50 with MCF7 was 1.64 µM (inactive); with 786-0, 17.7 µM (inactive); in the assay on NCI-H460 it was 16.5 µM (inactive).
